Experimental data from US12552766B2, “Pesticidally active azole amide compounds” (SYNGENTA CROP PROTECTION AG, priority 2019, dated 2026).

Experiments:
Type in all cases: in vivo
[1] = test system: Plutella xylostella (Diamondback Moth); experiment: Example B13: Plutella xylostella, artificial diet, 96-well; details: 216 h, application rate of 500 ppm, eggs/L1 larvae, 9 days after infestation
Procedure: 96-well microtiter plates containing artificial diet were treated with aqueous test solutions, prepared from 10′000 ppm DMSO stock solutions, by a liquid handling robot. After drying, eggs (˜30 per well) were infested onto a netted lid which was suspended above the diet. The eggs hatch and L1 larvae move down to the diet. The samples were assessed for mortality 9 days after infestation.

[2] = test system: Plutella xylostella (Diamond Back Moth); experiment: Example B5: Plutella xylostella, artificial diet, 24-well; details: 192 h, application rate of 200 ppm, eggs, 8 days after infestation, read-out: control in at least one of the two categories (mortality or growth inhibition)
Procedure: 24-well microtiter plates with artificial diet were treated with aqueous test solutions prepared from 10′000 ppm DMSO stock solutions by pipetting. After drying, Plutella eggs were pipetted through a plastic stencil onto a gel blotting paper and the plate was closed with it. The samples were assessed for mortality and growth inhibition in comparison to untreated samples 8 days after infestation.

[3] = test system: Spodoptera littoralis (Egyptian Cotton Leaf Worm); experiment: Example B9: Spodoptera littoralis, spray on cotton leaf discs; details: foliar, 72 h, application rate of 200 ppm, L1 larvae, 3 days after infestation, read-out: control in at least one of the three categories (mortality, anti-feedant effect, or growth inhibition)
Procedure: Cotton leaf discs were placed onto agar in 24-well microtiter plates and sprayed with aqueous test solutions prepared from 10′000 ppm DMSO stock solutions. After drying the leaf discs were infested with five L1 larvae. The samples were assessed for mortality, anti-feeding effect, and growth inhibition in comparison to untreated samples 3 days after infestation. Control of Spodoptera littoralis by a test sample is given when at least one of the categories mortality, anti-feedant effect, and growth inhibition is higher than the untreated sample.

[4] = test system: Diabrotica Balteata (Corn Root Worm); experiment: Example B1: Diabrotica balteata, spray on maize sprouts; details: 96 h, application rate of 200 ppm, L2 larvae, 4 days after infestation, read-out: control in at least one of the two categories (mortality or growth inhibition)
Procedure: Maize sprouts placed onto an agar layer in 24-well microtiter plates were treated with aqueous test solutions prepared from 10′000 ppm DMSO stock solutions by spraying. After drying, the plates were infested with L2 larvae (6 to 10 per well). The samples were assessed for mortality and growth inhibition in comparison to untreated samples 4 days after infestation.

[5] = test system: Chilo suppressalis (Striped Rice Stemborer); experiment: Example B4: Chilo suppressalis, artificial diet; details: 144 h, application rate of 200 ppm, L2 larvae, 6 days after infestation, read-out: control in at least one of the three categories (mortality, anti-feedant effect, or growth inhibition)
Procedure: 24-well microtiter plates with artificial diet were treated with aqueous test solutions prepared from 10′000 ppm DMSO stock solutions by pipetting. After drying, the plates were infested with L2 larvae (6-8 per well). The samples were assessed for mortality, anti-feeding effect, and growth inhibition in comparison to untreated samples 6 days after infestation. Control of Chilo suppressalis by a test sample is given when at least one of the categories mortality, anti-feedant effect, and growth inhibition is higher than the untreated sample.

CC(NC(=O)c1cc(Br)cc(C(F)(F)F)c1)c1nc(Br)nn1-c1ncc(OC(F)F)cn1 (stereo not shown) [Compound P1, 3-bromo-N-[1-[5-bromo-2-[5-(difluoromethoxy)pyrimidin-2-yl]-1,2,4-triazol-3-yl]ethyl]-5-(trifluoromethyl) benzamide]
≥ 80%: mortality at 500 ppm [1] | percent control (mortality or growth inhibition) at 200 ppm [2] | percent control (mortality, anti-feedant effect or growth inhibition) at 200 ppm [3] | percent control (mortality or growth inhibition) at 200 ppm [4] | percent control (mortality, anti-feedant effect or growth inhibition) at 200 ppm [5]

CC(NC(=O)c1cc(OC(F)F)cc(C(F)(F)F)c1)c1nc(Br)nn1-c1ncc(OC(F)F)cn1 (stereo not shown) [Compound P3, N-[1-[5-bromo-2-[5-(difluoromethoxy)pyrimidin-2-yl]-1,2,4-triazol-3-yl]ethyl]-3-(difluoromethoxy)-5-(trifluoromethyl) benzamide]
≥ 80%: mortality at 500 ppm [1] | percent control (mortality or growth inhibition) at 200 ppm [2] | percent control (mortality, anti-feedant effect or growth inhibition) at 200 ppm [3] | percent control (mortality or growth inhibition) at 200 ppm [4] | percent control (mortality, anti-feedant effect or growth inhibition) at 200 ppm [5]

CC(NC(=O)c1cc(OCC(F)(F)F)cc(C(F)(F)F)c1)c1nc(Br)nn1-c1ncc(OC(F)F)cn1 (stereo not shown) [Compound P4, N-[1-[5-bromo-2-[5-(difluoromethoxy)pyrimidin-2-yl]-1,2,4-triazol-3-yl]ethyl]-3-(2,2,2-trifluoroethoxy)-5-(trifluoromethyl) benzamide]
≥ 80%: mortality at 500 ppm [1] | percent control (mortality or growth inhibition) at 200 ppm [2] | percent control (mortality, anti-feedant effect or growth inhibition) at 200 ppm [3] | percent control (mortality or growth inhibition) at 200 ppm [4] | percent control (mortality, anti-feedant effect or growth inhibition) at 200 ppm [5]

CC(NC(=O)c1cc(C(F)F)cc(C(F)(F)F)c1)c1nc(Br)nn1-c1ccc(C#N)cn1 (stereo not shown) [Compound P8, N-[1-[5-bromo-2-(5-cyano-2-pyridyl)-1,2,4-triazol-3-yl]ethyl]-3-(difluoromethyl)-5-(trifluoromethyl) benzamide]
≥ 80%: mortality at 500 ppm [1] | percent control (mortality or growth inhibition) at 200 ppm [2] | percent control (mortality, anti-feedant effect or growth inhibition) at 200 ppm [3] | percent control (mortality or growth inhibition) at 200 ppm [4] | percent control (mortality, anti-feedant effect or growth inhibition) at 200 ppm [5]

CC(NC(=O)c1cc(Br)cc(C(F)(F)F)c1)c1nc(Br)nn1-c1ccc(OC(F)F)cn1 (stereo not shown) [Compound P13, 3-bromo-N-[1-[5-bromo-2-[5-(difluoromethoxy)-2-pyridyl]-1,2,4-triazol-3-yl]ethyl]-5-(trifluoromethyl) benzamide]
≥ 80%: mortality at 500 ppm [1] | percent control (mortality or growth inhibition) at 200 ppm [2] | percent control (mortality, anti-feedant effect or growth inhibition) at 200 ppm [3] | percent control (mortality or growth inhibition) at 200 ppm [4] | percent control (mortality, anti-feedant effect or growth inhibition) at 200 ppm [5]

CC(NC(=O)c1cc(C(F)(F)F)cc(C(F)(F)F)c1)c1nc(Br)nn1-c1ccc(OCC(F)F)cn1 (stereo not shown) [Compound P15, N-[1-[5-bromo-2-[5-(2,2-difluoroethoxy)-2-pyridyl]-1,2,4-triazol-3-yl]ethyl]-3,5-bis(trifluoromethyl) benzamide]
≥ 80%: mortality at 500 ppm [1] | percent control (mortality or growth inhibition) at 200 ppm [2] | percent control (mortality, anti-feedant effect or growth inhibition) at 200 ppm [3] | percent control (mortality or growth inhibition) at 200 ppm [4] | percent control (mortality, anti-feedant effect or growth inhibition) at 200 ppm [5]

CC(NC(=O)c1cc(C(F)(F)F)cc(C(F)(F)F)c1)c1nc(Br)nn1-c1ccc(OCC(F)(F)F)cn1 (stereo not shown) [Compound P17, N-[1-[5-bromo-2-[5-(2,2,2-trifluoroethoxy)-2-pyridyl]-1,2,4-triazol-3-yl]ethyl]-3,5-bis(trifluoromethyl) benzamide]
≥ 80%: mortality at 500 ppm [1] | percent control (mortality or growth inhibition) at 200 ppm [2] | percent control (mortality, anti-feedant effect or growth inhibition) at 200 ppm [3] | percent control (mortality or growth inhibition) at 200 ppm [4] | percent control (mortality, anti-feedant effect or growth inhibition) at 200 ppm [5]

CC(NC(=O)c1cc(Br)cc(C(F)(F)F)c1)c1nc(Br)nn1-c1ncc(OCC(F)F)cn1 (stereo not shown) [Compound P18, 3-bromo-N-[1-[5-bromo-2-[5-(2,2-difluoroethoxy)pyrimidin-2-yl]-1,2,4-triazol-3-yl]ethyl]-5-(trifluoromethyl) benzamide]
≥ 80%: mortality at 500 ppm [1] | percent control (mortality or growth inhibition) at 200 ppm [2] | percent control (mortality, anti-feedant effect or growth inhibition) at 200 ppm [3] | percent control (mortality or growth inhibition) at 200 ppm [4] | percent control (mortality, anti-feedant effect or growth inhibition) at 200 ppm [5]

CC(NC(=O)c1cc(OCC(F)(F)F)cc(C(F)(F)F)c1)c1nc(Br)nn1-c1ncc(OCC(F)F)cn1 (stereo not shown) [Compound P19, N-[1-[5-bromo-2-[5-(2,2-difluoroethoxy)pyrimidin-2-yl]-1,2,4-triazol-3-yl]ethyl]-3-(2,2,2-trifluoroethoxy)-5-(trifluoromethyl) benzamide]
≥ 80%: mortality at 500 ppm [1] | percent control (mortality or growth inhibition) at 200 ppm [2] | percent control (mortality, anti-feedant effect or growth inhibition) at 200 ppm [3] | percent control (mortality or growth inhibition) at 200 ppm [4] | percent control (mortality, anti-feedant effect or growth inhibition) at 200 ppm [5]

CC(NC(=O)c1cc(OCC(F)F)cc(C(F)(F)F)c1)c1nc(Br)nn1-c1ncc(OCC(F)(F)F)cn1 (stereo not shown) [Compound P20, N-[1-[5-bromo-2-[5-(2,2,2-trifluoroethoxy)pyrimidin-2-yl]-1,2,4-triazol-3-yl]ethyl]-3-(2,2-difluoroethoxy)-5-(trifluoromethyl) benzamide]
≥ 80%: mortality at 500 ppm [1] | percent control (mortality or growth inhibition) at 200 ppm [2] | percent control (mortality, anti-feedant effect or growth inhibition) at 200 ppm [3] | percent control (mortality, anti-feedant effect or growth inhibition) at 200 ppm [5]

CC(NC(=O)c1cc(OCC(F)(F)F)cc(C(F)(F)F)c1)c1nc(Br)nn1-c1ccc(C#N)cn1 (stereo not shown) [Compound P21, N-[1-[5-bromo-2-(5-cyano-2-pyridyl)-1,2,4-triazol-3-yl]ethyl]-3-(2,2,2-trifluoroethoxy)-5-(trifluoromethyl) benzamide]
≥ 80%: mortality at 500 ppm [1] | percent control (mortality or growth inhibition) at 200 ppm [2] | percent control (mortality, anti-feedant effect or growth inhibition) at 200 ppm [3] | percent control (mortality or growth inhibition) at 200 ppm [4] | percent control (mortality, anti-feedant effect or growth inhibition) at 200 ppm [5]

CC(NC(=O)c1cc(Cl)cc(C(F)(F)F)c1)c1nc(Br)nn1-c1ncc(OCC(F)F)cn1 (stereo not shown) [Compound P27, N-[1-[5-bromo-2-[5-(2,2-difluoroethoxy)pyrimidin-2-yl]-1,2,4-triazol-3-yl]ethyl]-3-chloro-5-(trifluoromethyl) benzamide]
≥ 80%: mortality at 500 ppm [1] | percent control (mortality or growth inhibition) at 200 ppm [2] | percent control (mortality, anti-feedant effect or growth inhibition) at 200 ppm [3] | percent control (mortality or growth inhibition) at 200 ppm [4] | percent control (mortality, anti-feedant effect or growth inhibition) at 200 ppm [5]

CC(NC(=O)c1cc(C(F)F)cc(C(F)(F)F)c1)c1nc(Br)nn1-c1ncc(OC(F)F)cn1 (stereo not shown) [Compound P28, N-[1-[5-bromo-2-[5-(difluoromethoxy)pyrimidin-2-yl]-1,2,4-triazol-3-yl]ethyl]-3-(difluoromethyl)-5-(trifluoromethyl) benzamide]
≥ 80%: mortality at 500 ppm [1] | percent control (mortality or growth inhibition) at 200 ppm [2] | percent control (mortality, anti-feedant effect or growth inhibition) at 200 ppm [3] | percent control (mortality or growth inhibition) at 200 ppm [4] | percent control (mortality, anti-feedant effect or growth inhibition) at 200 ppm [5]

CC(NC(=O)c1cc(OCC(F)F)cc(C(F)(F)F)c1)c1nc(Br)nn1-c1ccc(OCC(F)F)cn1 (stereo not shown) [Compound P36, N-[1-[5-bromo-2-[5-(2,2-difluoroethoxy)-2-pyridyl]-1,2,4-triazol-3-yl]ethyl]-3-(2,2-difluoroethoxy)-5-(trifluoromethyl) benzamide]
≥ 80%: mortality at 500 ppm [1] | percent control (mortality or growth inhibition) at 200 ppm [2] | percent control (mortality, anti-feedant effect or growth inhibition) at 200 ppm [3]
